Data on one molecule can be found in patent publication US9937225B2, “Topical formulations and uses thereof” (OCULAR TECHNOLOGIES SARL, priority 2012, dated 2018).

Series [1] in a line: Weight percent of compound 1001 loaded into mixed nanomicelles (entrapment, RP-HPLC). It counts as physicochemical. As to conditions: solvent evaporation, HCO-60 4 wt %, Octoxynol-40 0.01 wt %. The procedure:
To determine the entrapment efficiency of the formulation, all the prepared formulations were subjected to entrapment efficiency test. Briefly, formulations were vortex mixed for homogeneity and 1 mL was transferred to a fresh (1.5 mL) eppendorf tube. Each formulation was lyophilized to obtain a solid at the bottom of eppendorf tube. The obtained solid was suspended in 1 mL of organic solvent (diethyl ether) to generate reverse micelles and release the drug into the external organic solvent. The organic solvent was evaporated overnight in speed vacuum. The resultant reversed micelles were resuspended in 1 mL of 2-propanol (dilution factor was taken into account) and further diluted to determine the concentration of compound 1001 entrapped in each micellar preparation with HPLC. The entrapment efficiency of the formulation was calculated with the following formula (wherein MNF=Mixed Nanomicellar Formulation): […]
In vitro analysis of compound 1001 was performed by a reversed phase high performance liquid chromatography (RP-HPLC) method with a Shimadzu HPLC pump (Shimadzu, Shimadzu Scientific instruments, Columbia, Md.), Alcott autosampler (model 718 AL), Shimadzu UV/Visible detector (Shimadzu, SPD-20A/20AV, USA), ODS column (5 μm, 150×4.6 mm) thermostated at 40°±1 C and Hewlett Packard HPLC integrator (Hewlett Packard, Palo Alto, Calif.). The mobile phase was comprised of methanol (MeOH), water and trifluoroacetic acid (TFA) (70:30:0.05% v/v) which was set at a flow rate of 0.5 mL/min. Detection wavelength was set at 272 nm. The sample tray temperature was maintained at 4° C. Calibration curve (0.5 to 5 μg/mL) for compound 1001 was prepared by making appropriate dilutions from the stock solution in 2-propanol. An injection volume of 10 μl was injected into the HPLC column for analysis. All the standards and samples prepared were stored at 4° C. before and during the analysis.
Mixed nanomicellar formulation encapsulating compound 1001 was prepared by solvent evaporation method in two steps: 1) Preparation of basic formulation and 2) rehydration. In step one, compound 1001, HCO-60 and octoxynol-40 were dissolved separately in 0.3 mL of ethyl acetate. These three solutions were mixed together in 15-mL centrifuge tube. The resultant mixture was vortexed to obtain a homogenous solution. Ethyl acetate solvent was removed with speed vacuum to obtain a solid thin film. The residue was kept overnight under high vacuum at room temperature to remove residual organic solvent. In step two, the resultant thin film was hydrated with 1 mL of double distilled deionized water by vortexing the solution. The rehydrated formulation was suspended in 2× phosphate buffer solution, (pH 6.5). It was filtered through 0.2 μm nylon filter membrane to remove the unentrapped drug aggregates and other foreign particulates. The entrapment of compound 1001 was determined by RP-HPLC following disruption of the micelles and solubilization of 1001 in the diluent (2-propanol) as described below
Weight percent of drug loaded into MNF was determined following the method for entrapment efficiency. Size and polydispersity index of the formulations was determined with Malvern zetasizer as described above. The formulations appear clear and have small size and narrow size distribution.

Series [2] can be described thus: Ocular tissue distribution of compound 1001 nanomicellar formulations (LC-MS/MS). The format is in vivo, New Zealand White Rabbits. Conditions: rabbits, topical ocular administration. As for the experimental part: A study was conducted in rabbits to test the tolerance and ocular tissue distribution of two nanomicellar formulations of compound 1001 (RX10045) against matching placebos (Table 6a and 6b) and balanced saline solution (BSS). Healthy New Zealand female white rabbits (2-3 kg) were used for this study. One drop (approximately 35 μL) of study drug was applied o.d. 4×/day at two hour intervals for 5 days. One drop of BSS was applied to the contralateral eye.
Selected ocular fluids/tissues (aqueous humor, vitreous humor, conjunctiva, cornea, iris-ciliary body, lens, retina/choroid, and sclera) collected from two rabbits each in the RX-10045 (0.15% in HCO-60, 0.1% in HCO-40) treatment groups, and from one rabbit in each of the matching placebo groups, were assayed for compound 1001 and another resolvin by liquid chromatography-tandem mass spectrometry (LC-MS/MS). Warfarin-d5 and 5-HDA were used as internal standards for the analysis of RX-10045 and its active metabolite, RX-10008, respectively, in aqueous humor and vitreous humor. For the other ocular tissues (solid tissues), warfarin-d5 and phenyl acetic acid-d5 (PAA-d5) were used as the internal standards for compound 1001 and RX-10008, respectively. The analytical range for the solid tissues were 0.125-100 ng. The results of the solid tissue analyses were converted to ng/g by correcting for the amount of tissue analyzed.

On to `C#CC[C@@H](O)/C=C/C=C/C#C[C@@H](O)CCCC(=O)OC(C)C` [compound 1001], for which the “1001 (loaded in mixed micelles) wt %” value in series [1] (1001 initially added 0.035 wt %) amounted to 0.033 wt %; in series [1] (1001 initially added 0.070 wt %), 0.065 wt %; in series [1] (1001 initially added 0.095 wt %) it was 0.084 wt %; in series [1] (1001 initially added 0.120 wt %) it was 0.11 wt %; in series [1] (1001 initially added 0.250 wt %), 0.26 wt %; in series [1] (1001 initially added 0.300 wt %), 0.32 wt %. Further, the “1001 (loaded in mixed micelles) wt %” value in series [1] (1001 initially added 0.400 wt %) is 0.45 wt %. Besides, the “Hydrolysis to active metabolite RX-10008 in ocular tissues” value in series [2] is “rapidly hydrolyzed”.
